# Test results taken from US20130316016A1, “ANTIBACTERIAL OR ANTI-ACNE FORMULATIONS CONTAINING USNIC ACID OR AN USNATE AND A METAL SALT” (EVOCUTIS PLC, priority 2010, published 2013).
# Marks after values point to notes of the source that are not given here.
# Test system: Propionibacterium acnes NCTC 737
# Test: fixed ratio combination MIC/MBC assay
# Type: cell-based
# Settings: for active against P. acnes NCTC 737: compound alone, statement in words; for MBC / MIC: test compound alone; for MBC: P. acnes NCTC 737; for MIC: P. acnes NCTC 737, pH 6.0, anaerobic, 37° C., 72 hours
# Experimental: The test organism used was Propionibacterium acnes NCTC 737. This is a propionibacterial strain and is the type strain of the […]; it is fully susceptible to antibiotics. The propionibacteria are clinically significant due to their involvement in acne. They are also opportunistic pathogens in compromised hosts. Activity observed against these micro-organisms is expected to be a good predictor of activity against acne. The propionibacteria were cultured and maintained on Wilkins-Chalgren Anaerobe Medium (agar and broth) at pH 6.0; all cultures were incubated anaerobically at 37° C. for 72 hours. The following “fixed ratio combination MIC/MBC assay” was carried out to assess antimicrobial activity against the test organism. The method used a sterile 96-well microtitre plate, capable of holding about 200 μl of liquid per well. […] The culture medium was as described above. The wells were inoculated with a liquid suspension of freshly grown micro-organism and incubated under the conditions described above. After incubation, the microtitre plate was examined visually (with the aid of a light box) for cloudiness in each well, which would indicate microbial growth. The minimum inhibitory concentration (MIC) value was recorded as the lowest concentration of test compound alone, or the lowest concentration of the mixture of the two test compounds, required to inhibit microbial growth, i.e. where the liquid in the well remained clear. The assays were conducted in triplicate and included both negative (culture medium with no micro-organisms) and positive (culture medium plus diluting solvent(s) plus micro-organism) controls. […] These samples were then individually sub-cultured on antibiotic-free agar medium, under the incubation conditions described above. Following incubation they were examined visually for microbial growth. […] A fractional inhibitory concentration index (FICI) or fractional bactericidal concentration index (FBCI) was then calculated for each compound in the relevant mixture, and these two indices were added together to give an overall FICI or FBCI to indicate the mode of interaction. Thus for each mixture (of two compounds A and B) which was tested, the FIC for compound A (FICA)=MIC for (A+B)/MIC for A alone. Similarly the FIC for compound B (FICB)=MIC for (A+B)/MIC for B alone. The overall […]. FBCs and FBCIs were calculated in the same manner, using recorded MBC values.
Molecule,active against P. acnes NCTC 737,MBC,MIC
"[Cl][Bi]([Cl])[Cl] [Bismuth (III) chloride, bismuth (III) chloride]",active,>19* μg/ml,19 µg/mL
"CC(=O)[O-].[Cu+] [Copper (I) acetate, copper (I) acetate]",,22.2 µg/mL,11.1 µg/mL
"CC(=O)[O-].CC(=O)[O-].[Cu+2] [Copper (II) acetate, copper (II) acetate]",,>16.8* μg/ml,16.8 µg/mL
"[Cl][Cu][Cl] [Copper (II) chloride, copper (II) chloride]",,>22.25* μg/ml,12.2 µg/mL
"O=S(=O)([O-])[O-].[Cu+2] [Copper (II) sulphate, copper (II) sulphate]",active,>14.5* μg/ml,>14.5* μg/ml
"CC(=O)c1c(O)c(C)c(O)c2c1OC1=CC(=O)C(C(C)=O)C(=O)C12C (stereo not drawn) [Usnic acid, 2,6-diacetyl-7,9-dihydroxy-8,9b-dimethyl-1,3(2H,9bh)-dibenzofurandione]",active,,
copper (II) D-gluconate,,>41.1* μg/ml,>41.1* μg/ml
